# Assay results reported in patent US20250340661A1, “ANTI CD40 ANTIBODY, ANTIGEN BINDING FRAGMENT AND MEDICAL USE THEREOF” (Jiangsu Hengrui Pharmaceuticals Co., Ltd., priority 2021, published 2025).
# Test system: human CD40 transgenic mice
# Experiment: Mouse skin graft rejection model
# Format: in vivo
# Details: for Skin graft score: 3 mpk
# Source text: Male Balb/c mice, 6 weeks old, were purchased from the Laboratory Animal Management Department, Shanghai Institute of Planned Parenthood Research. Housing environment: SPF; certification number: 20180006023393.
# On day −2 of the experiment, the mice were intraperitoneally injected with tacrolimus FK506 or CD40 antagonistic antibodies. On day 0 of the experiment, donor Balb/c mice and C57BL6/J mice were anesthetized with 4% chloral hydrate. The tails of the donor mice were removed, and full circles of skin, 1 cm in length, were isolated from the tails. The hair on the acceptor mice's back was removed, and an incision was made along the skin layer. An equal area of skin was removed while preserving the back fat and connective tissue. The donor skin was placed on the acceptor mice's incision site, and the incision was closed with glue. The mice were then placed back in cages to recover.
# The mice were dosed according to the administration regimens in Table 17. After 7 days of recovery, the mouse skin survival was observed daily and rejection scores were recorded.
structure (smiles),measurement,setting,value
"C=CC[C@@H]1/C=C(\C)C[C@H](C)C[C@H](OC)[C@H]2O[C@@](O)(C(=O)C(=O)N3CCCC[C@H]3C(=O)O[C@H](/C(C)=C/[C@@H]3CC[C@@H](O)[C@H](OC)C3)[C@H](C)[C@@H](O)CC1=O)[C@H](C)C[C@@H]2OC [FK506, tacrolimus, reference compound]",Skin graft score,"8 days, scale 3 (no rejection) to 0",2.5
same,Skin graft score,"10 days, scale 3 to 0",1.5
same,Skin graft score,"15 days, scale 3 to 0",0.5
same,Skin graft score,"20 days, scale 3 to 0",0
same,Skin graft survival rate (%),"Day 15, 3 mpk ip",16.7%
